Values quoted from earlier work as cited in patent publication US12091679B2, “Storage method and banking system of NT cell” (SUNGKWANG MEDICAL FOUNDATION, priority 2015, dated 2024).

System: various animal cancer models

| Structure (SMILES) | anticancer activity |
| --- | --- |
| CC(C)N(C[C@H]1O[C@@H](n2cnc3c(N)ncnc32)[C@H](O)[C@@H]1O)[C@H]1C[C@@H](CCc2nc3cc(C(C)(C)C)ccc3[nH]2)C1 [EPZ5676] | show anticancer activity |
| Cc1cc(C)c(CNC(=O)c2cc(-c3ccc(CN4CCOCC4)cc3)cc3c2cnn3C2CCCC2)c(=O)[nH]1 [EPZ005687] | show anticancer activity |
| CC[C@H](C)n1cc(C)c2c(C(=O)NCc3c(C)cc(C)[nH]c3=O)cc(-c3ccc(N4CCNCC4)nc3)cc21 [GSK126] | show anticancer activity |
